Reference: patent US11413285B2, “PDE III inhibitors for treatment of asymptomatic heart failure” (priority 2004, dated 2022)
Counter-ions that a name gives are not always drawn. Like-named read-outs stand apart in the source and are kept apart here.

Assays:
[1] = system: dogs with clinically overt heart failure due to valve insufficiency; assay: Double-blind randomized positive controlled multi-centre field trial, pimobendan versus benazepril; assay type: in vivo, dog; details: for dogs that died or were euthanised due to cardiac reasons: 56-days study period, 41 dogs pimobendan group, 35 dogs benazepril group; for ISACHC classification Ib (Score=2), no clinical symptoms, share of cases / overall efficacy rated as very good or good, share of cases: Day 56; for ISACHC heart failure classification improved, share of cases: after the 56 day treatment period; for median survival time: long-term survival data
Description: A double-blind randomized positive controlled multi-centre field trial has been carried out in order to evaluate the clinical efficacy of pimobendan treatment at a daily dose of 0.4-0.6 mg/kg in comparison to an angiotensin-converting-enzyme (ACE) inhibitor treatment with benazepril hydrochloride at a daily dose of approximately 0.25-0.5 mg/kg body weight. Both treatments could be combined with furosemide (up to 8 mg/kg per day) or anti-arrhythmic drugs as appropriate. The study was conducted at 11 centers in Europe by experienced veterinary cardiologists under the rules of Good Clinical Practice (GCP). Mandatory minimum duration of treatment was 56 days for each patient. Dogs were examined on Day 0 prior to first treatment and on Day 7 and 56 after initiation of therapy. In order to obtain long-term survival data, the investigator had the option to continue therapy after Day 56. In the optional study period treatment code for the animal was decoded, as it was not allowed to add pimobendan to the benazepril group, in order to maintain an appropriate […] control group. All other licensed concomitant therapies were allowed. For survival analysis, animals that dropped out or changed treatment due to therapy failure were also rated as dead. However, these cases were statistically evaluated as censored data.
Primary parameter for conclusion on efficacy was the clinical severity of heart failure symptoms, classified according to the recommendations of the International Small Animal Cardiac Health Council (ISACHC). Secondary parameters were exercise tolerance, demeanor, findings of the respiratory and circulatory system, overall efficacy rating, as well as, echocardiography data.
Overall 76 dogs, 41 dogs in the pimobendan group and 35 dogs in the benazepril group were included. […] Mean duration of symptoms prior to inclusion was 4.05 months in the pimobendan and 2.77 months in the benazepril group. There were no clinically relevant differences between the groups prior to initiation of therapy in any of the parameters investigated.
The radiographs have been made in a left to right lateral view. For the determination of cardiac size a vertebral scale system was used.
In the lateral radiographs, the long axis of the heart (L) was measured with a caliper extending from the ventral aspect of the left main stem bronchus (tracheal bifurcation hilus, carina) to the most distant contour of the left ventricular apex. The caliper was repositioned along the vertebral column beginning at the cranial edge of the 4th thoracic vertebra. The length of the heart was recorded as the number of vertebrae caudal of that point and estimated to the nearest 0.1 of a vertebra. The maximum perpendicular short axis (S) was measured in the same manner beginning at the 4th thoracic vertebra.
The length in vertebrae (v) of the long and short axes were then added to obtain a vertebral heart sum (VHS) which provided a single number representing heart size proportionate to the size of the dog. The normal range of VHS in healthy dogs is 8.5 v to 10.5 v (mean of 9.7 v).

dogs with DCM = dogs with DCM in the LIVE study; cited from earlier work
[2] = system: human patients with heart failure; details: long-term oral use; cited from earlier work
[3] = system: Cocker spaniels and Dobermanns with DCM; details: for mean survival time / survival time, range: in addition to digoxin, enalapril, furosemide
Source text: A double-blind study has been carried out in order to evaluate the long-term efficacy and tolerance to pimobendan and its effect on long-term survival in cocker spaniels and Dobermanns with DCM.
Materials and Methods: Cocker spaniels (n=10) and Dobermanns (n=10) presenting to the Cardiopulmonary Service of the R(D)SVS with DCM were recruited for the study with owners' consent. After stabilization on conventional therapy with digoxin, enalapril, and furosemide, dogs received in addition either pimobendan (Vetmedin®) or placebo using a double-blind study design.

[4] = system: dogs suffering of occult dilated cardiomyopathy; assay: Study in dogs with occult dilated cardiomyopathy (ISACHC class I); assay type: in vivo, dog
Source text: A study is done with pimobendan ([…]®) in dogs suffering of occult dilated cardiomyopathy. Inclusion criteria were dogs which are diagnosed to have a congestive heart failure of class I according to the […]-score due to dilated cardiomyopathy (DCM). Dogs having a having an asymptomatic (occult) heart failure, e.g. asymptomatic DCM must have reduced contractility of the heart or other signs of reduced cardiac efficacy such as volume overload or ventricle dilatation as confirmed by echocardiography. The dogs stay under mono-therapy until signs of congestive heart failure are developing, deteriorate to heart insufficiency score ([…]) class II or III a or b. After confirmation of the congestion by X-ray-radiography the dogs receive furosemid treatment or if the clinical or echocardiographic results makes the addition of another heart failure treatment necessary (primary endpoint). The dogs will be investigated at day 0 prior to first treatment and then approximately 3 month post initiation of the therapy. […] An Echo is performed prior to initiation of therapy (Day 0) and at the following visits to support the clinical diagnosis and to evaluate the effect of the drugs on the contractility of the heart. The echocardiography is performed according to the cardiologic case report form for Irish Wolfhounds. The primary parameter investigated will be the heart insufficiency score ([…]). […]

[5] = Visit 1 (Day 0, prior to first treatment)

## CCOC(=O)[C@H](CCc1ccccc1)N[C@H]1CCc2ccccc2N(CC(=O)O)C1=O [benazepril, benazepril hydrochloride]
[1]
  dogs that died or were euthanised due to cardiac reasons: 7 dogs
  ISACHC classification Ib (Score=2), no clinical symptoms, share of cases: 48%
  overall efficacy rated as very good or good, share of cases: 41%
  ISACHC heart failure classification improved, share of cases: 56%
  median survival time: 228 days

## CCOC(=O)[C@H](CCc1ccccc1)N[C@@H](C)C(=O)N1CCC[C@H]1C(=O)O [enalapril]
Dogs with DCM
  time to treatment failure: 142.8 days

## COc1ccc(-c2nc3ccc(C4=NNC(=O)CC4C)cc3[nH]2)cc1 (stereo not drawn) [pimobendan, 4,5-dihydro-6-[2-(4-methoxyphenyl)-1H-benzimidazol-5-yl]-5-methyl-3(2H)-p-yridazone]
[1]
  dogs that died or were euthanised due to cardiac reasons: 2 dogs
  ISACHC classification Ib (Score=2), no clinical symptoms, share of cases: 76%
  overall efficacy rated as very good or good, share of cases: 85%
  ISACHC heart failure classification improved, share of cases: 84%
  median survival time: 430 days
[1]; [5]
  vertebral heart sum, Max.: 14.5 v
  vertebral heart sum, Mean: 11.83 v
  vertebral heart sum, Median: 11.60 v
  vertebral heart sum, Min.: 9 v
[1]; Visit 3 (Day 56)
  vertebral heart sum, Max.: 14.1 v
  vertebral heart sum, Mean: 11.71 v
  vertebral heart sum, Median: 11.60 v
  vertebral heart sum, Min.: 9.0 v
[1]; Visit 3-1 (Day 56 minus Day 0)
  change in mean heart size (vertebral heart sum), Mean: −0.15 v
  vertebral heart sum, change from baseline, Max.: 0.8 v
  vertebral heart sum, change from baseline, Median: 0.00 v
  vertebral heart sum, change from baseline, Min.: −1.9 v
[2]
  effects on survival: without significantly adverse effects on survival
  exercise tolerance and quality of life: improvement in exercise tolerance and quality of life
[3]; Dobermanns with DCM
  mean survival time: 280 days
  survival time, range: 42 to 369 days
[3]; both breeds, addition to standard treatment regimen
  NYHA-class status of the patient: significant improvement
[3]; cocker spaniels with DCM
  mean survival time: 612 days
  survival time, range: 61 to 1428 days
[3]; dog, in vivo
  tolerance / treatment-related adverse effects: well tolerated and no treatment-related adverse effects were noted
[4]; dogs with asymptomatic DCM
  Left Ventricular Reverse Remodeling (LVRR), share of treated dogs: ~80%
[4]; interim analysis after 4 years, mono-therapy
  dogs that went into the state of clinical symptoms (Class II): significantly less dogs
